{"source": "patent US20050153967A1", "about": "“Pharmaceutical compositions comprising 2-(4-ethoxy-phenyl)-3-(4-methanesulfonyl-phenyl)-pyrazolo'1,5-bipyridazine in nanoparticulate form” (priority 2002, published 2005)", "key": {"[1]": {"test": "Dissolution testing (in vitro prediction of bioavailability)", "assay_type": "physicochemical", "description": "Dissolution testing is a well established technique for obtaining a correlation between in vitro and in vivo data in relation to compound bioavailability. […] As a result attempts were made to improve the bioavailability of compound (I). WO01/41760 (Pharmacia Corporation) discloses that the bioavailability of selective COX-2 inhibitory drugs of low water solubility may be enhanced by reducing the drug particle size, such that a substantial proportion are smaller than 1 μm."}, "[2]": {"target": "T1, cyclooxygenase-2 (COX-2) (Homo sapiens, UniProt P35354)", "T1 sequence (P35354 18-604)": "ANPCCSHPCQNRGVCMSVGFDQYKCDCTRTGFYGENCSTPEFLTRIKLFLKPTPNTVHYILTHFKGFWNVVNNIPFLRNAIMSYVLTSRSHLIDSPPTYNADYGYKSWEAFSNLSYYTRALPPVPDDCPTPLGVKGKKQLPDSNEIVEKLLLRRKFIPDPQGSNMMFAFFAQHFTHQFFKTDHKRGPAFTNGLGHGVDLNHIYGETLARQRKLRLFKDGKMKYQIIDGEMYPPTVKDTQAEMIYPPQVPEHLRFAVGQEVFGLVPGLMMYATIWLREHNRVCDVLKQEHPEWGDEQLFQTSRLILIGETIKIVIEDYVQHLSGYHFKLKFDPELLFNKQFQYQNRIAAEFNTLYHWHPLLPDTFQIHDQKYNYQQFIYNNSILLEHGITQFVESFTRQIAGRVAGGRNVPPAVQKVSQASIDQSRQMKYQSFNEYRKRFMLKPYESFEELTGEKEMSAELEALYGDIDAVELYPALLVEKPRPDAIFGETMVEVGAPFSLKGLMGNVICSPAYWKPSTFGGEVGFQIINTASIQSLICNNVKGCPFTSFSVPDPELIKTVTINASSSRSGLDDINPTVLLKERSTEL", "settings": "cited from earlier work"}}, "data": [{"smiles": "CCOc1ccc(-c2nn3ncccc3c2-c2ccc(S(C)(=O)=O)cc2)cc1", "note": "[compound (I), 2-(4-ethoxy-phenyl)-3-(4-methanesulfonyl-phenyl)-pyrazolo[1,5-b]pyridazine]", "values": [{"measurement": "dissolution, indicated bioavailability", "setting": "[1]; co-formulation with HPMC-AS in an amorphous dispersion", "result": "enhanced"}, {"measurement": "dissolution, predicted bioavailability", "setting": "[1]; compound (I) in micronised form, preliminary dissolution experiments", "result": "poorly bioavailable"}, {"measurement": "dissolution profile", "setting": "[1]; pharmaceutical composition with compound (I) in nanoparticulate form", "result": "poor dissolution profile"}, {"measurement": "inhibition of cyclooxygenase-2 (COX-2)", "setting": "[2]", "result": "potent and selective inhibitor"}]}]}
